Measurements: patent US20050095240A1, “NaCT as a target for lifespan expansion and weight reduction” (Medical College of Georgia Research, priority 2002, published 2005)
Several values for one entry are separate records, joined by “and”; a condition that tells them apart may be missing. Identical values can stand only once.

How the values were obtained:
drIndy = drIndy (Drosophila melanogaster, UniProt Q9VVT2); details: for % Control of cDNA-specific [^3H]succinate uptake / cDNA-specific [^3H] succinate uptake: [3H]succinate 40 nM, inhibitor 2.5 mM; for cDNA-specific [^3H] succinate uptake: NaCl buffer pH 7.5; for Citrate uptake, drIndy / Fold Increase of citrate uptake (drIndy vs vector): citrate 35 μM, indicated salt; for Citrate uptake, drIndy: drIndy cDNA-transfected HRPE cells
human NaCT = human NaCT (Homo sapiens, UniProt Q86YT5); experiment: Uptake via human NaCT expressed in HRPE cells; type: cell-based; details: for Citrate Uptake, cDNA: human NaCT cDNA-transfected HRPE; for Citrate Uptake, cDNA / Citrate Uptake, cDNA-specific: pH 7.5, indicated salt; for Citrate Uptake, cDNA-specific, %: relative to NaCl
rat NaCT = target: T1, rat NaCT (Rattus norvegicus, UniProt Q8CJ44); experiment: Uptake via rat NaCT expressed in HRPE cells; type: cell-based; details: for Citrate Uptake, cDNA-specific / Citrate Uptake, cDNA / Citrate Uptake, cDNA-specific, %: [14C]citrate 7 μM; for Citrate Uptake, cDNA-specific / Citrate Uptake, cDNA: pH 7.5, indicated salt; for Citrate Uptake, cDNA: rat NaCT cDNA-transfected HRPE; for Citrate Uptake, cDNA-specific, %: relative to NaCl
T1 sequence (Q8CJ44 1-572): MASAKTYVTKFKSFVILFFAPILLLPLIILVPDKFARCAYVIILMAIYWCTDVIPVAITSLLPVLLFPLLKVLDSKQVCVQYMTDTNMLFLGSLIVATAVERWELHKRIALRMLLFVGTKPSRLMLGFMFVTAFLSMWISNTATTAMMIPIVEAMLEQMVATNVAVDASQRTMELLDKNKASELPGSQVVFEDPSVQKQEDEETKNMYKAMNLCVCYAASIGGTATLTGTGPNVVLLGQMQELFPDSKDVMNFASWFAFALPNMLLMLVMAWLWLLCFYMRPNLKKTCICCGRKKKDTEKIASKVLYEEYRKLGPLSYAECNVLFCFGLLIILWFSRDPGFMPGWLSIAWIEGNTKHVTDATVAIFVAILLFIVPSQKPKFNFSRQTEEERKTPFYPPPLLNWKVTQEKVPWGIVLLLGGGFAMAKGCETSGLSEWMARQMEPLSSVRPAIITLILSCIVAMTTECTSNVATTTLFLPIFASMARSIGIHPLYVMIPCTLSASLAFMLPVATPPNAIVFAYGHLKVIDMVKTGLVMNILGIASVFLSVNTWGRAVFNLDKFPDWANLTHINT

mouse NaCT = target: T2, mouse NaCT (Mus musculus, UniProt Q67BT3); experiment: Transport via mouse NaCT expressed in HRPE cells; type: cell-based
T2 sequence (Q67BT3 1-572): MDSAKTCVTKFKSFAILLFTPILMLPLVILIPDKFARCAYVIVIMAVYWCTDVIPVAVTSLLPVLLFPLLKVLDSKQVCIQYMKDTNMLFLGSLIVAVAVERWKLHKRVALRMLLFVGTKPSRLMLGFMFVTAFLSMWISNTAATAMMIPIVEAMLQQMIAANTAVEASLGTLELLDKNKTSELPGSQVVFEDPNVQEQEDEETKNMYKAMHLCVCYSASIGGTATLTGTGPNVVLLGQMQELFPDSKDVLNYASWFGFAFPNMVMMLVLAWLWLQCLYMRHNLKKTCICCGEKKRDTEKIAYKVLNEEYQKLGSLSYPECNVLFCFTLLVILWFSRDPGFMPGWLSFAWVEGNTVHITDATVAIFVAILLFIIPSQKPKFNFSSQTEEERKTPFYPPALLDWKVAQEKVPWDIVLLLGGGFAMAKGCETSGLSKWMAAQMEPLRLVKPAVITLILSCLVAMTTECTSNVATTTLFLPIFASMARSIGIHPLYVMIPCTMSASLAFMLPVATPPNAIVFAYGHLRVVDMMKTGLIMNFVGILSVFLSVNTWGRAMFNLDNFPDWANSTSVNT

Chain of drIndy (Q9VVT2 19-590): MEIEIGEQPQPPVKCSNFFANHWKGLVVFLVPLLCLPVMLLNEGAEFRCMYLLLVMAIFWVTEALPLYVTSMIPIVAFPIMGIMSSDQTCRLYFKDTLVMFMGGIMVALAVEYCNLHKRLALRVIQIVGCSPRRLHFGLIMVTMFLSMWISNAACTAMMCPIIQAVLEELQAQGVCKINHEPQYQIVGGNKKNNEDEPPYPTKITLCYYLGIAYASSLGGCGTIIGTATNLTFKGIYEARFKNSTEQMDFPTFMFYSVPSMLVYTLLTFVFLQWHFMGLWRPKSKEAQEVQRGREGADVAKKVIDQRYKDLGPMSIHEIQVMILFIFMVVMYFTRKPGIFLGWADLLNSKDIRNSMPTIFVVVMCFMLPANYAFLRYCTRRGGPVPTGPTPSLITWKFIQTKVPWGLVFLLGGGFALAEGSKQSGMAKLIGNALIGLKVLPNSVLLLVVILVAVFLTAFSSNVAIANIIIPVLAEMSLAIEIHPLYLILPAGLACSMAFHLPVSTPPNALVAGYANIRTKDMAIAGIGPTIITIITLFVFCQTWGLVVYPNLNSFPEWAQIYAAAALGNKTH
Chain of human NaCT (Q86YT5 whole entry): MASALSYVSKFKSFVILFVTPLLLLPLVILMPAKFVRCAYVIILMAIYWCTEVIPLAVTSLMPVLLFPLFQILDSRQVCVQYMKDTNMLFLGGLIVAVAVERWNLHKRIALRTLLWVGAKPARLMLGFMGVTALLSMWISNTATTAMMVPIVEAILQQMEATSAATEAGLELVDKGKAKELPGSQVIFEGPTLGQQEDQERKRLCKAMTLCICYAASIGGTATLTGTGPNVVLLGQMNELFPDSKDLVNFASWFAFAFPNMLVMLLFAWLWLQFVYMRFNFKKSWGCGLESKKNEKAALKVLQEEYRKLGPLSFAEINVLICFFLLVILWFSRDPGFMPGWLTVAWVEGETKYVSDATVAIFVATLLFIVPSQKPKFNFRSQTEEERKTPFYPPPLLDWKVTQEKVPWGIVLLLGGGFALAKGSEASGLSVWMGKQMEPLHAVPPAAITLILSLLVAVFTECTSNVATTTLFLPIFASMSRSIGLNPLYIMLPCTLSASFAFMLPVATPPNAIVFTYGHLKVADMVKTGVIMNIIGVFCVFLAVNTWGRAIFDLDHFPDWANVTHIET

Row | SMILES | % Control of cDNA-specific [^3H]succinate uptake (drIndy) [%] | Citrate uptake, drIndy (drIndy) [pmol/10^6 cells per min] | Fold Increase of citrate uptake (drIndy vs vector) (drIndy) [fold] | Citrate Uptake, cDNA (human NaCT; [14C]-citrate 20 μM) [pmol/10^6 cells/min] | Citrate Uptake, cDNA-specific (human NaCT; [14C]-citrate 20 μM) | Citrate Uptake, cDNA-specific, % (human NaCT) [%] | Citrate Uptake, cDNA-specific (rat NaCT) [pmol/10^6 cells/min] | Citrate Uptake, cDNA (rat NaCT) [pmol/10^6 cells/min] | Citrate Uptake, cDNA-specific, % (rat NaCT) [%] | further results
1 | CC(=O)N[C@@H](CC(=O)O)C(=O)O [N-Acetylaspartate] | 43 | – | – | – | – | – | – | – | – | cDNA-specific [^3H] succinate uptake (drIndy): 58.4 ± 1.5 fmol/106 cells per min
2 | CNC[C@H](O)[C@@H](O)[C@H](O)[C@H](O)CO.Cl [NMDG chloride, N-methyl-D-glucamine chloride] | – | 25.4 ± 1.8 | 13.4 | 1.3 ± 0.2 | −0.1 ± 0.2^ pmol/10^6 cells/min | 0 | 0.4 ± 0.3 | 1.6 ± 0.3 | 1 | –
3 | [Cl-].[Na+] [NaCl] | – | 57.4 ± 3.3 | 26.1 | 59.9 ± 3.9 | 58.4 ± 3.9 pmol/10^6 cells/min | 100 | 38.0 ± 3.3 | 38.8 ± 3.3 | 100 | –
4 | [Na+] [Na^+] | – | – | – | – | – | – | – | – | – | Hill coefficient (nH) of Na+ activation (mouse NaCT): 3.3±0.6 and 2.0±0.3; EC50 (mouse NaCT; read-out: K0.5 for Na+ (half-maximal activation of the transport process)): 72 ± 6 mM; Hill coefficient (nH) of Na+ dependence of citrate uptake (rat NaCT): 3.3±0.3
5 | CC(=O)C(=O)O [Pyruvate, pyruvate] | 21 | – | – | – | – | – | – | – | – | [^14C]-Citrate Uptake, % (human NaCT; [14C]-citrate 20 μM, unlabeled compound 2.5 mM, none = 100): 108%; [^3H]-Succinate transport, % (mouse NaCT; [3H]-succinate 0.1 μM, substrate analog 2 mM, control = 100): 104%; [^14C]-Citrate transport, % (mouse NaCT; [14C]-citrate 10 μM, substrate analog 2 mM, control = 100): 84%; [^14C]Citrate uptake, % (rat NaCT; [14C]citrate 14 μM, unlabeled compound 2.5 mM, none = 100): 83%
6 | O=C([O-])[C@H](O)[C@@H](O)[C@H](O)[C@H](O)CO.[Na+] [Sodium gluconate] | – | 144.2 ± 1.6 | 65.6 | 61.7 ± 4.7 | 60.1 ± 4.7 pmol/10^6 cells/min | 103 | 29.1 ± 2.3 | 29.6 ± 2.3 | 77 | –
7 | O=C(O)CC(O)(C(=O)O)C(O)C(=O)O (centres unmarked) [hydroxycitrate] | – | – | – | – | – | – | – | – | – | Inhibition of citrate uptake via NaCT (human NaCT; 0.1 mM hydroxycitrate, human NaCT in HRPE cells): 30-40%; Inhibition of citrate uptake via NaCT (rat NaCT; 0.1 mM hydroxycitrate, rat NaCT in HRPE cells): 30-40%
8 | CC(O)CC(=O)O (stereo not drawn) [β-Hydroxybutyrate] | 91 | – | – | – | – | – | – | – | – | cDNA-specific [^3H] succinate uptake (drIndy): 134.0 ± 9.0 fmol/106 cells per min
